This passage reports IC50 results from patent publication US12527779B2, “Prostaglandin E2 (PGE2) EP4 receptor antagonists” (Domain Therapeutics, priority 2019, dated 2026).

A word on the IC50: it is the midpoint of a concentration-inhibition curve. A low value points to higher potency.

Structures are written as SMILES. Counter-ions that a name gives are not always drawn.

This experiment deals with T1, human EP4 (hEP4) receptor (Homo sapiens, UniProt P35408).
T1 construct: expressed in transfected cells; host or cells: HEK-293 T cells, transient co-transfection with polyethylenimine
T1 sequence (P35408 whole entry): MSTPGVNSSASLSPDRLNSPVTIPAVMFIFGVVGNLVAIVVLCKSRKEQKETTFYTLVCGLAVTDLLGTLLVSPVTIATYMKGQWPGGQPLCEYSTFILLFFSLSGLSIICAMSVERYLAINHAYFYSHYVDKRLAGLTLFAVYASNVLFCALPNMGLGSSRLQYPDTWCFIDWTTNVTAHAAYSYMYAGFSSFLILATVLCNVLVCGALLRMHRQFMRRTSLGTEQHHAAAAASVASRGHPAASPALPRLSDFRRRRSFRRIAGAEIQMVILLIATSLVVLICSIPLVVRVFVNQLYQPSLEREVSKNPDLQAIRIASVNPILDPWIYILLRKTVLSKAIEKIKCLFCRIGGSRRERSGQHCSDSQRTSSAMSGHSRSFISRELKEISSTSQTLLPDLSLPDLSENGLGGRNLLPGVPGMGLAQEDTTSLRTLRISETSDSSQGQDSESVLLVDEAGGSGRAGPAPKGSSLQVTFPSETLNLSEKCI
As to the kind of experiment: In vitro human EP4 functional antagonist activity using BRET biosensors (cAMP EPAC biosensor, TCS2510 stimulation). The settings on record: antagonist activity vs EC60 TCS2510, hEP4 in HEK-293 T cells. Type of experiment: cell-based. The procedure, abridged: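 HEK-293T cells transiently co-transfected with hEP4 and EPAC cAMP BRET biosensor (luciferase/GFP), assayed 48 h later in HEPES-buffered saline after 1 h at 22 °C. After 5 min with compound, cells stimulated with EC60 TCS2510 and BRET read for 10 min; IC50 from 10-point, 4.5-log variable-slope fits, duplicate, two experiments.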
A general note: Bioluminescence resonance energy transfer reports proximity on the nanometre scale.
Take `C[C@H](NC(=O)C1(NCCOc2cc(F)cc(F)c2)CCOCC1)c1ccc(C(=O)O)cc1` [Example 16, 4-[(1S)-1-[[4-[2-(3,5-Difluorophenoxy)ethylamino]tetrahydropyran-4-carbonyl]amino]ethyl]benzoic acid, hydrochloride]: the 50% inhibitory concentration (IC50) was under 100 nM. `CN(CCOc1cccc(OC(F)(F)F)c1)C1(C(=O)NC2(c3ccc(C(=O)O)cc3)CC2)CCOCC1` [Example 43, 4-[1-[[4-[2-(3-Trifluoromethoxyphenoxy)ethyl-methyl-amino]tetrahydropyran-4-carbonyl]amino]cyclopropyl]benzoic acid, hydrochloride] showed an IC50 of under 100 nM.

In the case of `C[C@H](NC(=O)C1(N2CC[C@@H](Oc3cccc(C(F)(F)F)c3)C2)CCOCC1)c1ccc(S(C)(=N)=O)cc1` (stereo partly drawn) [Example 180, N-((1S)-1-(4-(S-Methylsulfonimidoyl)phenyl)ethyl)-4-((R)-3-(3-(trifluoromethyl)phenoxy)pyrrolidin-1-yl)tetrahydro-2H-pyran-4-carboxamide, hydrochloride], the IC50 is under 100 nM. In the case of `C[C@H](NC(=O)C1(NCCOc2cccc(C(F)(F)F)c2)CCOCC1)c1ccc(C(=O)O)cc1` [Example 12, 4-[(1S)-1-[[4-[2-[3-(Trifluoromethyl)phenoxy]ethylamino]tetrahydropyran-4-carbonyl]amino]ethyl]benzoic acid] it was under 100 nM. In turn, `Cc1cccc(OCCN(C)C2(C(=O)N[C@@H](C)c3ccc(C(=O)O)cc3)CCCCC2)c1` [Example 59, 4-[(1S)-1-[[1-[Methyl-[2-(3-methylphenoxy)ethyl]amino]cyclohexanecarbonyl]amino]ethyl]benzoic acid, hydrochloride] returned an IC50 of under 100 nM. In the case of `C[C@H](NC(=O)C1(c2ccc(OCCC3CCCCC3)cc2)CCOCC1)c1ccc(C(=O)O)cc1` [Example 95, 4-[(1S)-1-[[4-[4-(2-Cyclohexylethoxy)phenyl]tetrahydropyran-4-carbonyl]amino]ethyl]benzoic acid] it was under 1000 nM; in that of `C[C@H](NC(=O)C1(NCCOc2cccc(Cl)c2)CCCCC1)c1ccc(C(=O)O)cc1` [Example 56, 4-[(1S)-1-[[1-[2-(3-Chlorophenoxy)ethylamino]cyclohexanecarbonyl]amino]ethyl]benzoic acid, hydrochloride], under 100 nM.

As for `C[C@H](NC(=O)C1(N2CC[C@@H](Oc3cccc(C(F)(F)F)c3)C2)CCOCC1)c1cccc(F)c1` [Example 188, N—((S)-1-(3-Fluorophenyl)ethyl)-4-((R)-3-(3-(trifluoromethyl)phenoxy)pyrrolidin-1-yl)tetrahydro-2H-pyran-4-carboxamide, hydrochloride], the 50% inhibitory concentration (IC50) was under 1000 nM. Then `C[C@H](NC(=O)C1(N2CC[C@@H](Oc3cccc(C(F)(F)F)c3)C2)CCOCC1)c1ccncc1` [Example 184, N—((S)-1-(Pyridin-4-yl)ethyl)-4-((R)-3-(3-(trifluoromethyl)phenoxy)pyrrolidin-1-yl)tetrahydro-2H-pyran-4-carboxamide, hydrochloride], with under 1000 nM; and `C[C@H](NC(=O)C1(c2ccc(OCC(F)(F)F)cc2)CCOCC1)c1ccc(C(=O)O)cc1` [Example 91, 4-[(1S)-1-[[4-[4-(2,2,2-Trifluoroethoxy)phenyl]tetrahydropyran-4-carbonyl]amino]ethyl]benzoic acid], with under 1000 nM.

In turn, `C[C@H](NC(=O)C1(N2CC[C@@H](Oc3cccc(C(F)(F)F)c3)C2)CCOCC1)c1ccccc1` [Example 183, N—((S)-1-Phenylethyl)-4-((R)-3-(3-(trifluoromethyl)phenoxy)pyrrolidin-1-yl)tetrahydro-2H-pyran-4-carboxamide, hydrochloride] registered an IC50 of under 1000 nM.

`C[C@H](NC(=O)C(C)(C)N1CC[C@@H](Oc2cccc(C(F)(F)F)c2)C1)c1ccc(C(=O)O)cc1` [Example 167, hydrochloride] gave an IC50 of under 100 nM.

With `C[C@H](NC(=O)C1(NCCOc2cccc(Cl)c2)CCCC1)c1ccc(C(=O)O)cc1` [Example 63, 4-[(1S)-1-[[1-[2-(3-Chlorophenoxy)ethylamino]cyclopentanecarbonyl]amino]ethyl]benzoic acid, hydrochloride], the IC50 was under 100 nM. Then `C[C@H](NC(=O)C1(N(C)CCOc2ccccc2)CCOCC1)c1ccc(C(N)=O)cc1` [Example 3, N-[(1S)-1-(4-Carbamoylphenyl)ethyl]-4-[methyl(2-phenoxyethyl)amino]tetrahydropyran-4-carboxamide], with under 1000 nM; and `C[C@H](NC(=O)C1(c2ccc(OCC3CCCCC3)nc2)CCOCC1)c1ccc(C(=O)O)cc1` [Example 121, 4-[(1S)-1-[[4-[6-(Cyclohexylmethoxy)-3-pyridyl]tetrahydropyran-4-carbonyl]amino]ethyl]benzoic acid], with under 1000 nM; and `C[C@H](NC(=O)C1(NCCOc2cccc(Cl)c2)CCOCC1)c1ccc(C(=O)O)cc1` [Example 8, 4-[(1S)-1-[[4-[2-(3-Chlorophenoxy)ethylamino]tetrahydropyran-4-carbonyl]amino]ethyl]benzoic acid, hydrochloride], with under 100 nM. On to `C[C@H](NC(=O)C1(N(C)CCOc2cccc(Cl)c2)CCOCC1)c1ccc(C(=O)O)cc1` [Example 9, 4-[(1S)-1-[[4-[2-(3-Chlorophenoxy)ethyl-methyl-amino]tetrahydropyran-4-carbonyl]amino]ethyl]benzoic acid, hydrochloride], for which the IC50 is under 100 nM. Then `CN(CCOc1cccc(Cl)c1)C1(C(=O)NC2(c3ccc(C(=O)O)cc3)CC2)CCOCC1` [Example 29, 4-[1-[[4-[2-(3-Chlorophenoxy)ethyl-methyl-amino]tetrahydropyran-4-carbonyl]amino]cyclopropyl]benzoic acid, hydrochloride], with under 100 nM. In the case of `C[C@H](NC(=O)C1(N(C)CCOc2cccc(Cl)c2)CCCCC1)c1ccc(C(=O)O)cc1` [Example 57, 4-[(1S)-1-[[1-[2-(3-Chlorophenoxy)ethyl-methyl-amino]cyclohexanecarbonyl]amino]ethyl]benzoic acid, hydrochloride] it was under 100 nM; in that of `C[C@H](NC(=O)C1(N2CCC[C@H](Oc3cccc(Cl)c3)C2)CCOCC1)c1ccc(C(=O)O)cc1` [Example 134, 4-[(1S)-1-[[4-[(3S)-3-(3-Chlorophenoxy)-1-piperidyl]tetrahydropyran-4-carbonyl]amino]ethyl]benzoic acid, hydrochloride], under 1000 nM; in that of `C[C@H](NC(=O)C1(N2CC[C@@H](Oc3cccc(C(F)(F)F)c3)C2)CCOCC1)c1ccc(C(N)=O)cc1` [Example 168, 4-[(1S)-1-[[4-[(3R)-3-[3-(Trifluoromethyl)phenoxy]pyrrolidin-1-yl]tetrahydropyran-4-carbonyl]amino]ethyl]benzamide, hydrochloride], under 100 nM. Turning to `C[C@H](NC(=O)C1(N2CC[C@@H](Oc3cccc(C(F)(F)F)c3)C2)CCOCC1)c1ccc(Br)cc1` [Example 190, N—((S)-1-(4-Bromophenyl)ethyl)-4-((R)-3-(3-(trifluoromethyl)phenoxy)pyrrolidin-1-yl)tetrahydro-2H-pyran-4-carboxamide, hydrochloride], the half-inhibitory concentration (IC50) is under 1000 nM. Turning to `C[C@H](NC(=O)C(C)(C)N1CC[C@@H](Oc2cccc(C(F)(F)F)c2)C1)c1ccc(C(N)=O)cc1` [Example 173, 4-[(1S)-1-[[2-[(3R)-3-[3-(Trifluoromethyl)phenoxy]pyrrolidin-1-yl]-2-methylpropane-carbonyl]amino]ethyl]benzamide, hydrochloride], the IC50 was under 100 nM.

Molecule `C[C@H](NC(=O)C1(c2cccc(OCCC3CCCCC3)c2)CCOCC1)c1ccc(C(=O)O)cc1` [Example 105, 4-[(1S)-1-[[4-[3-(2-Cyclohexylethoxy)phenyl]tetrahydropyran-4-carbonyl]amino]ethyl]benzoic acid] showed an IC50 of under 1000 nM. Then `O=C(NC[C@H]1CC[C@H](C(=O)O)CC1)C1(N2CC[C@@H](Oc3cccc(C(F)(F)F)c3)C2)CCOCC1` [Example 200, (1R,4R)-4-((4-((R)-3-(3-(Trifluoromethyl)phenoxy)pyrrolidin-1-yl)tetrahydro-2H-pyran-4-carboxamido)methyl)cyclohexane-1-carboxylic acid, hydrochloride], with under 100 nM. For `C[C@H](NC(=O)C1(N2CC[C@@H](Oc3cccc(C(F)(F)F)c3)C2)CCOCC1)c1ccccn1` [Example 186, N—((S)-1-(Pyridin-2-yl)ethyl)-4-((R)-3-(3-(trifluoromethyl)phenoxy)pyrrolidin-1-yl)tetrahydro-2H-pyran-4-carboxamide, hydrochloride], the IC50 is under 1000 nM. Then `CN(CCOc1cccc(C#N)c1)C1(C(=O)NC2(c3ccc(C(=O)O)cc3)CC2)CCOCC1` [Example 46, 4-[1-[[4-[2-(3-Cyanophenoxy)ethyl-methyl-amino]tetrahydropyran-4-carbonyl]amino]cyclopropyl]benzoic acid, hydrochloride], with under 1000 nM. The molecule `Cc1ccc([C@H](C)NC(=O)C2(N3CC[C@@H](Oc4cccc(C(F)(F)F)c4)C3)CCOCC2)cc1` [Example 193, N—((S)-1-(4-Methylphenyl)ethyl)-4-((R)-3-(3-(trifluoromethyl)phenoxy)pyrrolidin-1-yl)tetrahydro-2H-pyran-4-carboxamide, hydrochloride] had an IC50 of under 1000 nM.

In turn, `C[C@H](NC(=O)C1(c2ccc(OCC3CCCCC3)cc2)CCCC1)c1ccc(C(=O)O)cc1` [Example 108, 4-[(1S)-1-[[1-[4-(Cyclohexylmethoxy)phenyl]cyclopentanecarbonyl]amino]ethyl]benzoic acid] registered an IC50 of under 100 nM. Then `CN(CCOc1ccccc1)C1(C(=O)NC2(c3ccc(C(=O)O)c(F)c3)CC2)CCOCC1` [Example 49, 2-Fluoro-4-[1-[[4-[methyl(2-phenoxyethyl)amino]tetrahydropyran-4-carbonyl]amino]cyclopropyl]benzoic acid, hydrochloride], with under 1000 nM.
